Values quoted from earlier work in article PMC6222850, “^66Ga: A Novelty or a Valuable Preclinical Screening Tool for the Design of Targeted Radiopharmaceuticals?” (Molecules : A Journal of Synthetic Chemistry and Natural …, 2018).

Tested on: LNCaP tumors
Design: method as in PMID 29623376

Structure (SMILES): O=C(O)CC[C@H](NC(=O)N[C@@H](CCCCNC(=O)[C@H](Cc1ccc2ccccc2c1)NC(=O)[C@H]1CC[C@H](CNC(=O)CN2CCN(CC(=O)O)CCN(CC(=O)O)CCN(CC(=O)O)CC2)CC1)C(=O)O)C(=O)O [PSMA-617]
- Clearance from blood: fast clearance from blood
